The values that follow come from patent publication US9474790B2, “Stable, protracted GLP-1/glucagon receptor co-agonists for medical use” (Novo Nordisk A/S, priority 2013, dated 2016).

Each structure is given as a SMILES string. pEC50: −log10 of the molar value. Numbered stars: 1 amine (or outer) side, 2 acyl side, 3 side chain; on linkers, the order of the positions; unused ones are H or OH. Square brackets hold non-standard residues; d marks the D form. Side chains are listed from the residue outwards. Peptide text beside a SMILES is read from it. * marks the point of attachment. C18 diacid = O=C(O)CCCCCCCCCCCCCCCCC(=O)*; γGlu = O=C(O)[C@H](CCC(=O)[*:2])N[*:1]; Ac4c = NC1(C(=O)O)CCC1; AEEA = NCCOCCOCC(=O)O; Aib = CC(C)(N)C(=O)O

The subject of one test is DIO mice. As to the kind of experiment: In vivo test in diet-induced obese (DIO) mice: body weight and blood glucose. Also noted: species or system c57bl/6J mice. The note with it: s.c. once daily 5 weeks, co-agonists 5 then 10 nmol/kg, liraglutide 100 nmol/kg. From the text: The purpose of this experiment was to investigate effect of the glucagon-GLP-1R co-agonists from Example 8 and Example 12 on body weight and blood glucose in vivo in DIO mice. Liraglutide (a human GLP-1 analogue marketed by Novo Nordisk NS under the brand name VictozaTM) was included for comparison. Male […]/6J mice obtained from Jackson Lab (USA) were fed a high fat diet (Research Diets D12451, 45% kcal fat) to obtain approximately 50% overweight compared to age-matched lean control mice. The DIO mice are characterized by normoglycemia, insulin resistance and obesity. […] The co-agonists, i.e. the glucagon derivatives, were dissolved in 50 mM Na2HPO4, 145 mM NaCl og 0.05% Tween 80, pH 7.4, while liraglutide was diluted from 6 mg/ml VictozaTM pens in DPBS buffer (Invitrogen) containing 0.5% rat serum albumin. Vehicle treated animals received 50 mM Na2HPO4, 145 mM NaCl og 0.05% Tween 80, pH 7.4. Compounds and vehicle were dosed (1 ml/kg) for 5 weeks s.c. once daily just prior to lights out. For the first half of the study co-agonists were administered at a dose of 5 nmol/kg and for the second half of the study co-agonists were administered at a dose of 10 nmol/kg. For comparison, liraglutide at a dose of 100 nmol/kg, likewise dosed s.c. once daily, was included. Body weight was monitored before dosing, daily during the dosing period. Non-fasted blood glucose was measured on the day of initiation of dosing and weekly during the dosing period, prior to dosing. Blood for measurement of blood glucose was taken from the tail tip capillary and blood glucose was measured using a glucose analyzer (Biosen 5040) based on the glucose oxidase method. The body weight reduction/body weight at the end of the 5 week treatment period and area under the blood glucose curve during the five week treatment period are given in the tables below.

Another test deals with T1, human GLP-1 receptor (Homo sapiens, UniProt P43220).
T1 construct: expressed in transfected cells; host or cells: BHK cells (parent BHKTS13), clone FCW467-12A/KZ10-1, with CRE luciferase
The experiment in a line: GLP-1 receptor potency, CRE luciferase reporter gene assay in BHK cells. The format is cell-based. To be noted: BHK cells expressing human GLP-1 receptor, read-out: EC50 GLP-1R. Put shortly: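 Potency as cAMP-driven firefly luciferase signal after 3 h, 37° C exposure to 10-fold dilutions (final 1×10EE-13–1×10EE-6 M). Stable hGLP-1R/CRE-luc BHK clone, 5×10EE3 cells/well, medium containing 2% ovalbumin and 0.2% Pluronic F-68; EC50 (pM) from variable-slope non-linear regression.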
A general note: In a reporter assay the amount or activity of a reporter protein is the signal.

The next test concerns the target T2, human glucagon receptor (Homo sapiens, UniProt P47871).
T2 construct: expressed in transfected cells; host or cells: BHK cells (parent BHK570, CRE luciferase clone BHK/KZ10-20-48), clone pLJ6'-4-25
As to the kind of experiment: Glucagon receptor potency, CRE luciferase reporter gene assay in BHK cells. In kind it is cell-based. The note with it: BHK cells expressing human glucagon receptor, read-out: EC50 GlucR. Put shortly: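 EC50 (pM) comes from a four-parameter fit of luciferase luminescence after 3 h at 37 °C with compound at final 1×10EE-13–1×10EE-6 M. Cells: BHK570-derived line carrying human glucagon receptor plus CRE-luciferase, 5×10EE3/well, in assay medium with 2% ovalbumin, 0.2% Pluronic F-68.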

As usually defined, the pEC50 is the EC50 on a negative log10 scale, so that one unit is a factor of ten.

T2 sequence (P47871 26-477): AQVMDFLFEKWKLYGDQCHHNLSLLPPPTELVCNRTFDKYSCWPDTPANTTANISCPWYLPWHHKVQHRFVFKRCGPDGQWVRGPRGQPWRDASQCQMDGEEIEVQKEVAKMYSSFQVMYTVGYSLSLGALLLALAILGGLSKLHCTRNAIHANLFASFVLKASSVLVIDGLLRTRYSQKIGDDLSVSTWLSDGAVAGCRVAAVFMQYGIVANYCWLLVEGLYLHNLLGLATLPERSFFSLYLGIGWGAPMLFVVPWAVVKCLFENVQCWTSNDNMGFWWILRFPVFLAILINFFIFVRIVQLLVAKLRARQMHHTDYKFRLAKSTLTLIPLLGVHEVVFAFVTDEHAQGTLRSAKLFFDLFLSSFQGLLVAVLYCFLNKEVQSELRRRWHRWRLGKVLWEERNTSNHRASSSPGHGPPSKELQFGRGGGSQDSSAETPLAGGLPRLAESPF
T1 sequence (P43220 24-463): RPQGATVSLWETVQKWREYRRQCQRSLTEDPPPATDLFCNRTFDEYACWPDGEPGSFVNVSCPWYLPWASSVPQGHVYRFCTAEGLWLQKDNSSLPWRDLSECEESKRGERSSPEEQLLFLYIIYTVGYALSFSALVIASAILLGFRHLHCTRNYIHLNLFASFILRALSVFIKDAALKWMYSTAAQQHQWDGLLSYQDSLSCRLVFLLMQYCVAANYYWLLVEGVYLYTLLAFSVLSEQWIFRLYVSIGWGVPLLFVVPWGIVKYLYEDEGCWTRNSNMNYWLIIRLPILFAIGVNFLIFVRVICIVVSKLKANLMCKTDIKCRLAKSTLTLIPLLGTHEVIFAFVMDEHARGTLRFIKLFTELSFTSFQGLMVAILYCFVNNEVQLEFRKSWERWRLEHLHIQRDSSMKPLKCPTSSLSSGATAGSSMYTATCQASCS

Regarding `CC(C)C[C@H](NC(=O)[C@H](CC(C)C)NC(=O)[C@H](Cc1c[nH]c2ccccc12)NC(=O)[C@H](CCC(N)=O)NC(=O)[C@@H](NC(=O)[C@H](Cc1ccccc1)NC(=O)[C@H](CCC(=O)O)NC(=O)[C@H](CCC(N)=O)NC(=O)[C@H](C)NC(=O)[C@H](C)NC(=O)[C@H](CCCCN)NC(=O)[C@H](CO)NC(=O)[C@H](CC(=O)O)NC(=O)[C@H](CC(C)C)NC(=O)[C@H](Cc1ccc(O)cc1)NC(=O)[C@H](CCCCN)NC(=O)[C@H](CO)NC(=O)[C@H](CC(C)C)NC(=O)[C@H](CC(=O)O)NC(=O)[C@H](CO)NC(=O)[C@@H](NC(=O)[C@H](Cc1ccccc1)NC(=O)[C@@H](NC(=O)CNC(=O)[C@H](CCC(N)=O)NC(=O)C(C)(C)NC(=O)[C@@H](N)Cc1c[nH]cn1)[C@@H](C)O)[C@@H](C)O)C(C)C)C(=O)N[C@@H](CC(N)=O)C(=O)N[C@@H](CCCCNC(=O)CC[C@H](NC(=O)CC[C@H](NC(=O)COCCOCCNC(=O)COCCOCCNC(=O)CC[C@H](NC(=O)CCCCCCCCCCCCCCCCC(=O)O)C(=O)O)C(=O)O)C(=O)O)C(N)=O` [Example 8, N^ε29-[(4S)-4-carboxy-4-[[(4S)-4-carboxy-4-[[2-[2-[2-[[2-[2-[2-[[(4S)-4-carboxy-4-(17-carboxyheptadecanoylamino)butanoyl]amino]ethoxy]ethoxy]acetyl]amino]ethoxy]ethoxy]acetyl]amino]butanoyl]amino]butanoyl]-[Aib2,Leu10,Lys17,Ala18,Glu21,Leu27,Lys29]-Glucagon amide] (H-H[Aib]QGTFTSDLSKYLDSKAAQEFVQWLLNK([γGlu-γGlu-AEEA-AEEA-γGlu-C18 diacid])-NH2; N-terminus assumed), the “Percent BW of baseline at week 5 (mean ± SD)” value in the test on DIO mice is on record as 88% ± 8%.

Turning to `CC(C)C[C@H](NC(=O)[C@H](Cc1ccc(O)cc1)NC(=O)[C@H](CCCCN)NC(=O)[C@H](CO)NC(=O)[C@H](CC(C)C)NC(=O)[C@H](CC(=O)O)NC(=O)[C@H](CO)NC(=O)[C@@H](NC(=O)[C@H](Cc1ccccc1)NC(=O)[C@@H](NC(=O)CNC(=O)[C@H](CCC(N)=O)NC(=O)C1(NC(=O)[C@@H](N)Cc2c[nH]cn2)CCC1)[C@@H](C)O)[C@@H](C)O)C(=O)N[C@@H](CCC(=O)O)C(=O)N[C@@H](CO)C(=O)N[C@@H](CCCNC(=N)N)C(=O)N[C@@H](CCCNC(=N)N)C(=O)N[C@@H](C)C(=O)N[C@@H](CCC(N)=O)C(=O)N[C@@H](CC(=O)O)C(=O)N[C@@H](Cc1ccccc1)C(=O)N[C@H](C(=O)N[C@@H](CCC(N)=O)C(=O)N[C@@H](Cc1c[nH]c2ccccc12)C(=O)N[C@@H](CC(C)C)C(=O)N[C@@H](CC(C)C)C(=O)N[C@@H](CCCCNC(=O)COCCOCCNC(=O)COCCOCCNC(=O)CC[C@H](NC(=O)CC[C@H](NC(=O)CC[C@H](NC(=O)CCCCCCCCCCCCCCCCC(=O)O)C(=O)O)C(=O)O)C(=O)O)C(=O)N[C@H](C(N)=O)[C@@H](C)O)C(C)C` [Example 63, N^ε28-[2-[2-[2-[[2-[2-[2-[[(4S)-4-carboxy-4-[[(4S)-4-carboxy-4-[[(4S)-4-carboxy-4-(17-carboxyheptadecanoylamino)butanoyl]amino]butanoyl]amino]butanoyl]amino]ethoxy]ethoxy]acetyl]amino]ethoxy]ethoxy]acetyl]-[Acb2,Leu10,Glu15,Leu27,Lys28]-Glucagon amide] (H-H[Ac4c]QGTFTSDLSKYLESRRAQDFVQWLLK([AEEA-AEEA-γGlu-γGlu-γGlu-C18 diacid])T-NH2; N-terminus assumed), the pEC50 was 11.15 on human GLP-1 receptor and 10.62 at human glucagon receptor.

For `CC(C)C[C@H](NC(=O)[C@H](Cc1ccc(O)cc1)NC(=O)[C@H](CCCCN)NC(=O)[C@H](CO)NC(=O)[C@H](CC(C)C)NC(=O)[C@H](CC(=O)O)NC(=O)[C@H](CO)NC(=O)[C@@H](NC(=O)[C@H](Cc1ccccc1)NC(=O)[C@@H](NC(=O)CNC(=O)[C@H](CCC(N)=O)NC(=O)C(C)(C)NC(=O)[C@@H](N)Cc1c[nH]cn1)[C@@H](C)O)[C@@H](C)O)C(=O)N[C@@H](CCC(=O)O)C(=O)N[C@@H](CO)C(=O)N[C@@H](CCCNC(=N)N)C(=O)N[C@@H](CCCNC(=N)N)C(=O)N[C@@H](C)C(=O)N[C@@H](CCCNC(=N)N)C(=O)N[C@@H](CCC(=O)O)C(=O)N[C@@H](Cc1ccccc1)C(=O)N[C@H](C(=O)N[C@@H](CCC(N)=O)C(=O)N[C@@H](Cc1c[nH]c2ccccc12)C(=O)N[C@@H](CC(C)C)C(=O)N[C@@H](CC(C)C)C(=O)N[C@@H](CCCCNC(=O)CC[C@H](NC(=O)CC[C@H](NC(=O)[C@H](CO)NC(=O)[C@H](CCC(=O)O)NC(=O)[C@H](CO)NC(=O)CC[C@H](NC(=O)CC[C@H](NC(=O)CCCCCCCCCCCCCCCCC(=O)O)C(=O)O)C(=O)O)C(=O)O)C(=O)O)C(=O)N[C@H](C(N)=O)[C@@H](C)O)C(C)C` [Example 67, N^ε28-[(4S)-4-carboxy-4-[[(4S)-4-carboxy-4-[[(2S)-2-[[(2S)-4-carboxy-2-[[(2S)-2-[[(4S)-4-carboxy-4-[[(4S)-4-carboxy-4-(17-carboxyheptadecanoylamino)butanoyl]amino]butanoyl]amino]-3-hydroxypropanoyl]amino]butanoyl]amino]-3-hydroxypropanoyl]amino]butanoyl]amino]butanoyl]-[Aib2,Leu10,Glu15,Arg20,Glu21,Leu27,Lys28]-Glucagon amide] (H-H[Aib]QGTFTSDLSKYLESRRAREFVQWLLK([γGlu-γGlu-Ser-Glu-Ser-γGlu-γGlu-C18 diacid])T-NH2; N-terminus assumed), the values for the pEC50 on human GLP-1 receptor and at human glucagon receptor were 11.40 and 11.00, respectively. On the same counts, the results for `CC(C)C[C@H](NC(=O)[C@H](Cc1ccc(O)cc1)NC(=O)[C@H](CCCCN)NC(=O)[C@H](CO)NC(=O)[C@H](CC(C)C)NC(=O)[C@H](CC(=O)O)NC(=O)[C@H](CO)NC(=O)[C@@H](NC(=O)[C@H](Cc1ccccc1)NC(=O)[C@@H](NC(=O)CNC(=O)[C@H](CCC(N)=O)NC(=O)C1(NC(=O)[C@@H](N)Cc2c[nH]cn2)CCC1)[C@@H](C)O)[C@@H](C)O)C(=O)N[C@@H](CCC(=O)O)C(=O)N[C@@H](CO)C(=O)N[C@@H](CCCCN)C(=O)N[C@@H](CCCNC(=N)N)C(=O)N[C@@H](C)C(=O)N[C@@H](CCCNC(=N)N)C(=O)N[C@@H](CCC(=O)O)C(=O)N[C@@H](Cc1ccccc1)C(=O)N[C@H](C(=O)N[C@@H](CCC(N)=O)C(=O)N[C@@H](Cc1c[nH]c2ccccc12)C(=O)N[C@@H](CC(C)C)C(=O)N[C@@H](CC(C)C)C(=O)N[C@@H](CCCCNC(=O)CC[C@H](NC(=O)CC[C@H](NC(=O)[C@H](CO)NC(=O)[C@H](CCC(=O)O)NC(=O)[C@H](CO)NC(=O)CC[C@H](NC(=O)CC[C@H](NC(=O)CCCCCCCCCCCCCCCCC(=O)O)C(=O)O)C(=O)O)C(=O)O)C(=O)O)C(=O)N[C@H](C(N)=O)[C@@H](C)O)C(C)C` [Example 68, N^ε28-[(4S)-4-carboxy-4-[[(4S)-4-carboxy-4-[[(2S)-2-[[(2S)-4-carboxy-2-[[(2S)-2-[[(4S)-4-carboxy-4-[[(4S)-4-carboxy-4-(17-carboxyheptadecanoylamino)butanoyl]amino]butanoyl]amino]-3-hydroxypropanoyl]amino]butanoyl]amino]-3-hydroxypropanoyl]amino]butanoyl]amino]butanoyl]-[Acb2,Leu10,Glu15,Lys17,Arg20,Glu21,Leu27,Lys28]-Glucagon amide] (H-H[Ac4c]QGTFTSDLSKYLESKRAREFVQWLLK([γGlu-γGlu-Ser-Glu-Ser-γGlu-γGlu-C18 diacid])T-NH2; N-terminus assumed) are 11.15 and 11.30.
